Experimental data as given in patent US6528685B2 (Teva Pharmaceutical Industries, Ltd., priority 1994, dated 2003).
Where a name gives a salt, the structure may show the parent alone.

How the values were obtained:
[1] = test system: mice; assay: Maximal electroshock (MES) model, mice; conditions: mice; for MICE MES ED50: intraperitoneal (i.p.) administration
[2] = test system: rats; assay: Neurotoxicity in rats, positional sense test and gait stance test; conditions: rats p.o.; positional sense test and gait stance test
Method: (§1) Neurotoxicity of the claimed agents was also assessed in mice (i.p. administration) by the rotorod ataxia test and/or in rats (p.o. administration) by positional sense test and gait stance test. […] The term quantitating the neurotoxicity is the medial neurological toxic dose (TD50), was determined in the above tests.

[3] = test system: mice; assay: Neurotoxicity in mice, rotorod ataxia test; conditions: mice i.p.; rotorod ataxia test
Method: as §1

[4] = test system: rats; assay: Maximal electroshock (MES) model, rats; conditions: rats, oral (p.o.) administration; median effective dose
[5] = test system: male ICR albino mice; assay: Hypobaric hypoxic model in mice, survival time; format: in vivo, mouse
Method: Desiccator B was disconnected and allowed to equilibrate with room air whilst desiccator A was evacuated to a pressure of 100 mmHg. […] The survival time from the moment of induction of hypoxia to the time of cessation of respiration was recorded for each mouse for a maximum of 15 minutes after which time room air was reintroduced to desiccator B. Survivors were monitored for signs of lethargy or vitality.
Effect of drug treatment was assessed as the percent of the survival time of the drug treated group with respect to the saline injected or vehicle injected control group. Control groups were run twice, before and after each experimental group and consisted of 12-16 mice in groups of 4 mice. Each experimental group always consisted of 4 mice to ensure a constant residual volume of oxygen in all tests. The effect of each dose of test drug was determined in duplicate i.e. two groups of 4 mice.
All drugs were administered intra-peritoneally at the dose indicated one hour prior to exposure to hypoxia.

[6] = test system: mongolian gerbils; assay: Global brain ischemia in gerbils; format: in vivo, mongolian gerbil; conditions: 3 injections, fraction of hippocampi protected from ischemia, 14 days post-ischemia
Method: Male mongolian gerbils, aged 2.5-5 months, housed 4-8 in a cage, were supplied freely with food and water and maintained at 24° C. with a 12 hour day/night cycle. […] Each artery was clamped for 5 minutes with aneurysm clips to produce global brain ischemia. The anesthesia was discontinued upon clamping. After 5 minutes the clamps were removed and the wound closed with skin clips.
For treatment, the test compound or vehicle were injected intra-peritoneally (ip) in a volume of 50 microliters of solvent per 10 g body weight. The first injection was given two minutes after clamp removal, and thereafter daily for the next 2 post-operative days (total of 3 injections).
Seven groups each of 4-8 animals were compared:
V. Ischemia—Test compound treated, one sub-group per concentration tested,
VI. Ischemia and pentobarbital (40 mg/kg) as positive control).
Analysis of neuronal damage was performed 14 days post-ischemia by counting pyramidal neurons throughout the CA1 layer of the anterior hippocampus in […] thick (paraffin) coronal brain sections stained with hematoxylin and erosin.
Percent Protection values represent the fraction of hippocampi protected from ischemia in a group of animals treated with the stated dose of compound.

[7] = 50 mg/kg ip one hour prior to hypoxia
[8] = 100 mg/kg ip one hour prior to hypoxia

SMILES: NC(=O)CNC1CCCc2ccccc21 (racemic) [Compound 4, (rac)-N-(2-Acetamido)-1-aminotetralin]
- MICE MES ED50 [1]: <100 mg/kg

SMILES: CC(C)(C)OC(=O)NCCCC(=O)NC1CCc2ccccc21 (racemic) [Compound 6, (rac)-N-(N-Boc-4-aminobutyryl)-1-aminoindan]
- melting point: 118 to 120 °C

SMILES: O=CNC1CCc2ccccc21 (racemic) [Compound 8, (rac)-N-Formyl-1-aminoindan]
- melting point: 105 °C

SMILES: CCCC(=O)NC1CCc2ccccc21 (racemic) [Compound 11, (rac)-N-Butyryl-1-aminoindan]
- melting point: 84 to 85 °C

SMILES: CN(C)C1CCc2ccccc21 (racemic) [Compound 15, (rac)-N,N-Dimethyl-1-aminoindan.HCl]
- RATS TD50 [2]: >50 mg/kg
- MICE TD50 [3]: <100 mg/kg
- RATS MES 50 [4]: 50 mg/kg

SMILES: c1ccc(CNC2CCc3ccccc32)cc1 (racemic) [Compound 16, (rac)-N-Benzyl-1-aminoindan.HCl]
- RATS TD50 [2]: >50 mg/kg
- RATS MES 50 [4]: 50 mg/kg
- MICE MES ED50 [1]: <50 mg/kg

SMILES: CC(=O)NC1CCc2cccc(C)c21 (racemic) [Compound 20, (rac)-7-Methyl-N-acetyl-1-aminoindan]
- melting point: 166 to 167 °C

SMILES: COc1ccc2c(c1)C(N)CC2 (racemic) [Compound 25, (rac)-6-Methoxy-1-aminoindan.HCl]
- MICE TD50 [3]: >100 mg/kg
- RATS MES 50 [4]: 50 mg/kg
- MICE MES ED50 [1]: <100 mg/kg

SMILES: COc1ccc2c(c1)C(NC(C)=O)CC2 (racemic) [Compound 26, (rac) 6-methoxy-N-acetyl-1-aminoindan]
- melting point: 131 to 132 °C

SMILES: Cc1cccc2c1C(N)CC2 (racemic) [Compound 28, (rac)-7-Methyl-1-aminoindan.HCl]
- RATS TD50 [2]: >50 mg/kg
- MICE TD50 [3]: <100 mg/kg
- PROTECTION % OF RESPECTIVE CONTROL [5, 7]: 361 ± 106%
- PROTECTION % OF RESPECTIVE CONTROL [5, 8]: 941 ± 34%
- RATS MES 50 [4]: <50 mg/kg
- MICE MES ED50 [1]: <100 mg/kg

SMILES: COc1ccc2c(c1OC)CCC2N (racemic) [Compound 31, (rac)-4,5-Dimethoxy-1-aminoindan.HCl]
- RATS TD50 [2]: >50 mg/kg
- MICE TD50 [3]: <100 mg/kg
- activity in the MES model in mice, in words [1]: showed activity
- MICE MES ED50 [1]: <100 mg/kg

SMILES: NC1CCc2ccc(O)cc21 (racemic) [Compound 34, (rac)-6-Hydroxy-1-aminoindan.HCl]
- MICE TD50 [3]: >300 mg/kg
- activity in the MES model in mice, in words [1]: showed activity
- MICE MES ED50 [1]: <300 mg/kg

SMILES: Cc1ccc2c(c1)CCC2N (racemic) [Compound 38, (rac)-5-Methyl-1-aminoindan.HCl]
- RATS TD50 [2]: >50 mg/kg
- MICE TD50 [3]: <100 mg/kg
- RATS MES 50 [4]: 50 mg/kg
- MICE MES ED50 [1]: <100 mg/kg

SMILES: C[C@@H]1Cc2ccccc2[C@H]1N (racemic) [Compound 39, (rac)-trans-2-Methyl-1-aminoindan.HCl]
- RATS TD50 [2]: >50 mg/kg
- MICE TD50 [3]: <100 mg/kg
- PROTECTION % OF RESPECTIVE CONTROL [5, 7]: 600 ± 213%
- PROTECTION % OF RESPECTIVE CONTROL [5, 8]: 798 ± 249%
- RATS MES 50 [4]: <50 mg/kg
- MICE MES ED50 [1]: <100 mg/kg

SMILES: C[C@H]1Cc2ccccc2[C@H]1N (racemic) [Compound 40, (rac)-cis-2-Methyl-1-aminoindan.HCl]
- RATS TD50 [2]: >50 mg/kg
- MICE TD50 [3]: <100 mg/kg
- PROTECTION % OF RESPECTIVE CONTROL [5, 7]: 374 ± 190%
- PROTECTION % OF RESPECTIVE CONTROL [5, 8]: 569 ± 173%
- RATS MES 50 [4]: <50 mg/kg
- MICE MES ED50 [1]: <100 mg/kg

SMILES: Cc1cc(C)c2c(c1)C(C)CC2N.Cl (racemic) [Compound 41, (rac)-3,5,7-Trimethyl-1-aminoindan.HCl]
- PROTECTION % OF RESPECTIVE CONTROL [5, 7]: 187 ± 41%
- PROTECTION % OF RESPECTIVE CONTROL [5, 8]: 644 ± 316%

SMILES: NC1CCc2cccc(O)c21 (racemic) [Compound 42, (rac)-7-Hydroxy-1-aminoindan.HCl]
- RATS TD50 [2]: >50 mg/kg
- PROTECTION % OF RESPECTIVE CONTROL [5, 7]: 179 ± 170%
- PROTECTION % OF RESPECTIVE CONTROL [5, 8]: 228 ± 119%
- RATS MES 50 [4]: <50 mg/kg

SMILES: c1ccc2c(c1)CCC2NC1CCc2ccccc21 (racemic) [Compound 43, (rac)-N,N-Di-(1-indanyl)amine.HCl]
- RATS TD50 [2]: >50 mg/kg
- MICE TD50 [3]: <100 mg/kg
- RATS MES 50 [4]: <50 mg/kg
- MICE MES ED50 [1]: <100 mg/kg

SMILES: O=C(NC1CCc2ccccc21)c1ccccc1 (racemic) [Compound 46, (rac)-N-Benzoyl-1-aminoindan]
- melting point: 140 to 142 °C

SMILES: COc1cccc(C(=O)NC2CCc3ccccc32)c1 (racemic) [Compound 52, (rac)-N-(m-Anisoyl)-1-aminoindan]
- melting point: 140 °C

SMILES: O=C(NC1CCc2ccccc21)c1ccc(F)cc1 (racemic) [Compound 53, (rac)-N-(4′-Fluorobenzoyl)-1-aminoindan]
- melting point: 109 to 110 °C

SMILES: Cc1ccc(C(=O)NC2CCc3ccccc32)cc1 (racemic) [Compound 54, (rac)-N-(p-Toluoyl)-1-aminoindan]
- melting point: 140 °C

SMILES: CC(=O)NC1CCc2ccc(C#N)cc21 (racemic) [Compound 61, (rac)-6-Cyano-N-acetyl-1-aminoindan]
- melting point: 175 to 176 °C

SMILES: CCOC(=O)c1ccc2c(c1)C(NC(C)=O)CC2 (racemic) [Compound 63, (rac)-6-Ethoxycarbonyl-N-acetyl-1-aminoindan]
- melting point: 146 to 147 °C

SMILES: CCCN(CCC)S(=O)(=O)c1ccc(C(=O)NC2CCc3ccccc32)cc1 (racemic) [Compound 69, (rac)-N-(4-(di-n-Propylsulfamoyl)benzoyl)-1-aminoindan]
- melting point: 124 to 125 °C

SMILES: N[C@H]1CCc2ccccc21 [C, (S)-1-aminoindan]
- PERCENT PROTECTION ([6]; 0.1 mg/kg ip): 0%
- PERCENT PROTECTION ([6]; 1.0 mg/kg ip): 50.0%

SMILES: CC(=O)N[C@H]1CCc2ccccc21 [Compound 19, (S)-N-Acetyl-1-aminoindan]
- PERCENT PROTECTION ([6]; 1.0 mg/kg ip): 0%

SMILES: COc1ccc2c(c1OC)CC[C@H]2NC(C)=O [Compound 21, (R)-4,5-Dimethoxy-N-acetyl-1-aminoindan]
- melting point: 175 °C

SMILES: NC1Cc2ccccc21 (stereo not drawn) [Compound 27, 1-Aminobenzocyclobutene.HCl]
- RATS TD50 [2]: >50 mg/kg
- MICE TD50 [3]: >100 mg/kg
- RATS MES 50 [4]: <50 mg/kg
- MICE MES ED50 [1]: <100 mg/kg

SMILES: COc1ccc2c(c1OC)CC[C@@H]2N.Cl [Compound 30, (S)-4,5-Dimethoxy-1-aminoindan.HCl]
- PROTECTION % OF RESPECTIVE CONTROL [5, 7]: 265 ± 284%
- PROTECTION % OF RESPECTIVE CONTROL [5, 8]: 379 ± 202%

SMILES: CCCC(CCC)C(=O)NC1CCc2ccccc21 (stereo not drawn) [Compound 47, N-(2-n-Propylpentanoyl)-1-aminoindan]
- melting point: 133 to 134 °C

SMILES: CC(=O)NC1CCc2ccc([N+](=O)[O-])cc21 (stereo not drawn) [Compound 58, N-Acetyl-6-nitro-1-aminoindan]
- melting point: 179 °C

SMILES: O=C(N[C@@H]1CCc2ccccc21)C(F)(F)F [Compound 68, (R)-N-Trifluoroacetyl-1-aminoindan]
- melting point: 152 to 153 °C

SMILES: O=C(CCCCC(=O)NC1CCc2ccccc21)NC1CCc2ccccc21 (stereo not drawn) [Compound 73, N,N′-Bis-(1-indanyl)adipamide]
- melting point: 227 °C

SMILES: O=C(CCCCC(=O)N[C@@H]1CCc2ccccc21)N[C@@H]1CCc2ccccc21 [Compound 74, N,N′-Bis-((R)-1-indanyl)adipamide]
- melting point: 244 to 247 °C

SMILES: O=C(CCC(=O)N[C@@H]1CCc2ccccc21)N[C@@H]1CCc2ccccc21 [Compound 75, N,N′-Bis-((R)-1-indanyl)succinamide]
- melting point: 266 to 269 °C

SMILES: C#CCN[C@H]1CCc2ccccc21.Cl [G, (S)-N-propargyl-1-aminoindan HCl salt]
- RATS MES 50 [4]: 57 mg/kg

SMILES: NC1CCc2ccc(F)cc21 (stereo not drawn) [I, 6-fluoro-1-aminoindan]
- RATS MES 50 [4]: <50 mg/kg

SMILES: N[C@H]1CCc2ccc(F)cc21 [K, (S)-6-fluoro-1-aminoindan]
- activity in the MES model in mice, in words [1]: showed activity

SMILES: C#CCNC1CCc2ccc(F)cc21 (stereo not drawn) [L, 6-fluoro-N-propargyl-1-aminoindan]
- activity in the MES model in mice, in words [1]: showed activity
